Data as given in patent US8058507B2, “HOPM1 mediated disease resistance to Pseudomonas syringae in Arabidopsis” (priority 2007, dated 2011).

Experiments:
Assay in all cases: BFA treatment of bacteria-infiltrated detached leaves: bacterial multiplication and disease symptoms
Type in all cases: in vivo, Pseudomonas syringae
Pst DC3000 ΔCEL mutant = tested on: Pst DC3000 ΔCEL mutant
Method: (§1) A standard enumeration procedure involves pathogen inoculation, using any one of described methods, supra, followed by assaying bacterial populations present within host tissues at regular intervals. The population present within the tissue was calculated based on the dilution factor divided by the amount of tissue present in each sample. Plotting log (culturable bacterial number/cm^2 leaf tissue) against time (usually in days) after pathogen inoculation produced an unfitted curve, i.e. growth curve. For a review of methods, see, Katagiri et al., in The Arabidopsis Book, Somerville, Meyerowitz, Eds. (American Society of Plant Biologists, Rockville, Md., 2002), website://dx.doi.org/10.1199/tab.0039; herein incorporated by reference.
(§2) Leaves were harvested and surface sterilized as follows: 1) whole leaves were removed from a host plant and gently mixed in a 70% ethanol solution for 1 minute. Leaves were blotted briefly on paper towels then rinsed in sterile distilled water for 1 minute, then blotted dry on paper towels. Leaf disks were excised from leaves with a 0.5 cm^2 or smaller cork borer, depending on the size of the sample leaves; 2) leaf disks from the leaves of 2 or more independent replicate plants were pooled for a single tissue sample and placed in a 1.5-mL microfuge tube with 100 μL sterile distilled water, the amount of leaf tissue per tube was recorded as leaf surface area. Three or more samples were harvested for each time point. Steps 1 and 2 were repeated for each sample; 3) Tissue samples were ground with a microfuge tube plastic pestle, by hand or by using a small hand-held electric drill. […] The number of serial dilutions necessary to get countable colonies were determined for each sample, however dilutions to 10^−7 were usually sufficient for any bacterial strain; 7) The samples were plated on the appropriate medium (e.g., Low salt Luria Bertani) supplemented with the necessary antibiotics to select for the specific inoculated bacterial strain. Plating was done in the traditional way (100 μL of a single sample was spread on a single plate) or several 10 μL aliquots of the 1:10 serial dilutions were spotted on to a single plate and allowed to dry onto the surface; and 8) Plates were placed at 30° C. for approximately 2 days with a cfu value determined for each dilution of each sample. […]
(§3) Leaves were infiltrated with 1×10^6 cfu/ml of bacteria, detached, and placed in microtiter wells with petioles immersed in the 36 μM BFA (Sigma Co.) solution. […] Bacterial populations and disease symptoms were determined on day 0 and day three.

Pst DC3000 = conditions: Col-0 gl1 plants treated with water or BFA (36 μM)
Method: as §1, §2, §3

hrcC mutant = conditions: Col-0 gl1 plants treated with water or BFA (36 μM)
Method: as §1, §2, §3

C[C@H]1CCC/C=C/[C@@H]2C[C@H](O)C[C@H]2[C@H](O)/C=C/C(=O)O1 [BFA, Brefeldin A] was tested, and the “virulence (both multiplication and disease symptoms)” value (Pst DC3000 ΔCEL mutant; 36 μM BFA, wild-type Col-0 gl1 plants, day three) was “significantly enhanced”, the “restoration of the virulence of the ΔCEL mutant, compared with AtMIN7 KO plants” value (Pst DC3000 ΔCEL mutant; BFA-treated leaves) was “greater than that in the AtMIN7 KO plants” and the “multiplication or disease symptoms” value (Pst DC3000) was “no significant differences”. The “multiplication or disease symptoms” value (hrcC mutant) was “no significant differences”.
